Measured values published in patent US10392391B2 (Vertex Pharmaceuticals Incorporated, priority 2012, dated 2019).

biological target: ATR kinase (full-length ATR) (Homo sapiens (Human), UniProt Q13535); assay: ATR inhibition assay (radioactive-phosphate incorporation); format: biochemical; settings: not given
Method in brief: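 Ki(app) was fitted by non-linear regression to background-corrected initial rates. Full-length ATR (5 nM) phosphorylated 800 μM peptide using 10 μM [γ-33P]ATP at 25° C in Tris/HCl pH 7.5 buffer with MgCl2, DTT and 7% DMSO. After 10-minute compound pre-incubation and 24-hour reaction, phosphocellulose filters were scintillation counted.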

ATR kinase (full-length ATR), sequence (Q13535 whole entry): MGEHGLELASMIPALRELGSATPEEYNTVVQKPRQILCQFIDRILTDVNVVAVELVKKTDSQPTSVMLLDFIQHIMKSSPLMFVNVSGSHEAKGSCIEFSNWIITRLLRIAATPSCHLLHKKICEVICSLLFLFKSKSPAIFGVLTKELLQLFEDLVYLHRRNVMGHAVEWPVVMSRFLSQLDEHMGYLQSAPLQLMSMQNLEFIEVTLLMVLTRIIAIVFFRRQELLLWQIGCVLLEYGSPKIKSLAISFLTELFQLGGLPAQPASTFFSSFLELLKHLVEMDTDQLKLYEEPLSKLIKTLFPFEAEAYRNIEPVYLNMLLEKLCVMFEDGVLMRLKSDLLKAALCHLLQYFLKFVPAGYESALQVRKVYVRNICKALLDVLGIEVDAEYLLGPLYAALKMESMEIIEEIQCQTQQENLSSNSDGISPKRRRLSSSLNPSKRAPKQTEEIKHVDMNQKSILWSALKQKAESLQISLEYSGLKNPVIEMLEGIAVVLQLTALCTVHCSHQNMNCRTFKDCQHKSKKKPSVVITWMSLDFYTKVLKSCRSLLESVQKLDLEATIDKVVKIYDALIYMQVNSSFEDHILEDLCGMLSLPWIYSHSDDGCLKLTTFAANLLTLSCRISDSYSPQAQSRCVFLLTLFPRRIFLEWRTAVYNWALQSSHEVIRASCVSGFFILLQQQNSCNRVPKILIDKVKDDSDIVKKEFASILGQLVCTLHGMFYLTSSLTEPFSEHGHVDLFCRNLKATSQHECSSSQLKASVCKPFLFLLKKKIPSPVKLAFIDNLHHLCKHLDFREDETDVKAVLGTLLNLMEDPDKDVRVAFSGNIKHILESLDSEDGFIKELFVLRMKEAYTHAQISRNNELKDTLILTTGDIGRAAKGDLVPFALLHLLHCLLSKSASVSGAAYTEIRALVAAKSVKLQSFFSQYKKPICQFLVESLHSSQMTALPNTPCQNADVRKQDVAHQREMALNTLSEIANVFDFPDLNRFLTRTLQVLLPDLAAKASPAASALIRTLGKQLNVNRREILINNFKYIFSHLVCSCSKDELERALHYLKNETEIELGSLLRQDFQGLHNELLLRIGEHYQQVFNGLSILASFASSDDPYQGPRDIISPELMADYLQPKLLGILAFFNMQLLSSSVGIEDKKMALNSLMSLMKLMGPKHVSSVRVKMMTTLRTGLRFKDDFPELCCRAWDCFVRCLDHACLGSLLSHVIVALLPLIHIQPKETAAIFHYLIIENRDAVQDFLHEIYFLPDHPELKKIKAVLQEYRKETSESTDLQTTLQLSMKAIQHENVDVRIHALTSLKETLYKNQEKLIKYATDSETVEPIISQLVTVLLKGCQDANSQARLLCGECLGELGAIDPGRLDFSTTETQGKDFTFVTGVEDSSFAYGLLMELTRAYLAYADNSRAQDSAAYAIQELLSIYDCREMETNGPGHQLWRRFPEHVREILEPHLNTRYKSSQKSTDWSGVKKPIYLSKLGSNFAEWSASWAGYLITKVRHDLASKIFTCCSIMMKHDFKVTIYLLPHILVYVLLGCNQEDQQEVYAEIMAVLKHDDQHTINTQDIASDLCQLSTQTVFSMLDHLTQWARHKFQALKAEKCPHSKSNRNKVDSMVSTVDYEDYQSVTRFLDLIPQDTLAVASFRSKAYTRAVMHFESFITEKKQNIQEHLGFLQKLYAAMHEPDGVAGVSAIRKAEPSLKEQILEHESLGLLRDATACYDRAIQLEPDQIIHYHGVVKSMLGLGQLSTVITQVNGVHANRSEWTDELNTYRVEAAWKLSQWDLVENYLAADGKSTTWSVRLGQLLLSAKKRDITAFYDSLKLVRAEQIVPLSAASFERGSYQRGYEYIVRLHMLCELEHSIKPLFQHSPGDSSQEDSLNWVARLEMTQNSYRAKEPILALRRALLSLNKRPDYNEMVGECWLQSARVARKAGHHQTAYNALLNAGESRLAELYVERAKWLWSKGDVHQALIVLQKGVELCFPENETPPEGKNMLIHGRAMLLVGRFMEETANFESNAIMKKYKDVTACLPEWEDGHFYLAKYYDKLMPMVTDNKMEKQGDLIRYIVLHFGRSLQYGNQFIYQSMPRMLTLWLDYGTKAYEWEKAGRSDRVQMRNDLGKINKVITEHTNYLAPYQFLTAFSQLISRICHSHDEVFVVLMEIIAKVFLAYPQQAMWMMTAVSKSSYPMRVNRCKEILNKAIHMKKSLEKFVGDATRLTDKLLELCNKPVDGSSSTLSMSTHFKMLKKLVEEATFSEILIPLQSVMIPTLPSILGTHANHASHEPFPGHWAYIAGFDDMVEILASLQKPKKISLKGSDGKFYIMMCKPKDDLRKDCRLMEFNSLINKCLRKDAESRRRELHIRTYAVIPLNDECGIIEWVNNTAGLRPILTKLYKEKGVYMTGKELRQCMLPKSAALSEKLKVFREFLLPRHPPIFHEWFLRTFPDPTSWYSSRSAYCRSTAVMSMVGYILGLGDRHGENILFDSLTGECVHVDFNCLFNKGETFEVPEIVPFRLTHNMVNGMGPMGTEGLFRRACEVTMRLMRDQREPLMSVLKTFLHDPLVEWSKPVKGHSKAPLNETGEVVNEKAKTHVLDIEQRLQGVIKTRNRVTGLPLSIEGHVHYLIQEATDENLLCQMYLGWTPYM

Row | Ki [nM] | SMILES
1 | 1000 to 5000 | CNCCc1cnn(-c2ccncc2NC(=O)c2c(N)nn3cc(F)cnc23)c1 [I-N-8, 2-amino-6-fluoro-N-(4-(4-(2-(methylamino)ethyl)-1H-pyrazol-1-yl)pyridin-3-yl)pyrazolo[1,5-a]pyrimidine-3-carboxamide]
2 | 1000 to 5000 | CN(C)CCc1cnn(-c2ccncc2NC(=O)c2c(N)nn3cc(F)cnc23)c1 [I-N-9, 2-amino-N-(4-(4-(2-(dimethylamino)ethyl)-1H-pyrazol-1-yl)pyridin-3-yl)-6-fluoropyrazolo[1,5-a]pyrimidine-3-carboxamide]
3 | 1000 to 5000 | CC(C)(C)N1CCN(c2ccncc2NC(=O)c2c(N)nn3cc(Cl)cnc23)CC1 [I-N-34, 2-amino-N-(4-(4-(tert-butyl)piperazin-1-yl)pyridin-3-yl)-6-chloropyrazolo[1,5-a]pyrimidine-3-carboxamide]
4 | 1000 to 5000 | CN(C)[C@H]1CCN(c2ccncc2NC(=O)c2c(N)nn3cc(Cl)cnc23)C[C@@H]1O [I-N-35, 2-amino-6-chloro-N-(4-((3S,4S)-4-(dimethylamino)-3-hydroxypiperidin-1-yl)pyridin-3-yl)pyrazolo[1,5-a]pyrimidine-3-carboxamide]
5 | 1000 to 5000 | CN(C)CC1(O)CCN(c2ccncc2NC(=O)c2c(N)nn3cc(Cl)cnc23)CC1 [I-N-36, 2-amino-6-chloro-N-(4-(4-((dimethylamino)methyl)-4-hydroxypiperidin-1-yl)pyridin-3-yl)pyrazolo[1,5-a]pyrimidine-3-carboxamide]
6 | 1000 to 5000 | CN(C)C1CCN(c2ccncc2NC(=O)c2c(N)nn3cc(Cl)cnc23)CC1 [I-N-37, 2-amino-6-chloro-N-(4-(4-(dimethylamino)piperidin-1-yl)pyridin-3-yl)pyrazolo[1,5-a]pyrimidine-3-carboxamide]

same assay, conditions: Ki(app), 5 nM full-length ATR, 10 μM ATP, 25° C.

Row | Ki [nM] | SMILES
7 | 10 to 1000 | CO[C@H]1CCN(C(=O)C2CCN(c3c(F)cncc3NC(=O)c3c(N)nn4cc(F)cnc34)CC2)C1 [I-G-99, (S)-2-amino-6-fluoro-N-(5-fluoro-4-(4-(3-methoxypyrrolidine-1-carbonyl)piperidin-1-yl)pyridin-3-yl)pyrazolo[1,5-a]pyrimidine-3-carboxamide]
8 | 10 to 1000 | N#CCc1cnc2c(C(=O)Nc3cnccc3N3CCC(N)CC3)c(N)nn2c1 [I-N-2, 2-amino-N-(4-(4-aminopiperidin-1-yl)pyridin-3-yl)-6-(cyanomethyl)pyrazolo[1,5-a]pyrimidine-3-carboxamide]
9 | 10 to 1000 | CN1CCN(c2ccncc2NC(=O)c2c(N)nn3cc(F)cnc23)CC1 [I-N-3, 2-amino-6-fluoro-N-(4-(4-methylpiperazin-1-yl)pyridin-3-yl)pyrazolo[1,5-a]pyrimidine-3-carboxamide]
10 | 10 to 1000 | CC(C)N1CCN(c2ccncc2NC(=O)c2c(N)nn3cc(F)cnc23)CC1 [I-N-4, 2-amino-6-fluoro-N-(4-(4-isopropylpiperazin-1-yl)pyridin-3-yl)pyrazolo[1,5-a]pyrimidine-3-carboxamide]
11 | 10 to 1000 | CN1CCN(c2c(NC(=O)c3c(N)nn4cc(F)cnc34)cncc2C2CC2)CC1 [I-N-5, 2-amino-N-(5-cyclopropyl-4-(4-methylpiperazin-1-yl)pyridin-3-yl)-6-fluoropyrazolo[1,5-a]pyrimidine-3-carboxamide]
12 | 10 to 1000 | Nc1nn2cc(F)cnc2c1C(=O)Nc1cnccc1-n1ccnc1 [I-N-7, N-(4-(1H-imidazol-1-yl)pyridin-3-yl)-2-amino-6-fluoropyrazolo[1,5-a]pyrimidine-3-carboxamide]
13 | 10 to 1000 | Nc1nn2cc(F)cnc2c1C(=O)Nc1cnccc1N1CCN([C@@H]2CCOC2)CC1 [I-N-10, (R)-2-amino-6-fluoro-N-(4-(4-(tetrahydrofuran-3-yl)piperazin-1-yl)pyridin-3-yl)pyrazolo[1,5-a]pyrimidine-3-carboxamide]
14 | 10 to 1000 | Nc1nn2cc(F)cnc2c1C(=O)Nc1cnccc1N1CCN(C2CCOCC2)CC1 [I-N-11, 2-amino-6-fluoro-N-(4-(4-(tetrahydro-2H-pyran-4-yl)piperazin-1-yl)pyridin-3-yl)pyrazolo[1,5-a]pyrimidine-3-carboxamide]
15 | 10 to 1000 | Nc1nn2cc(F)cnc2c1C(=O)Nc1cnccc1N1CCN([C@H]2CCOC2)CC1 [I-N-12, (S)-2-amino-6-fluoro-N-(4-(4-(tetrahydrofuran-3-yl)piperazin-1-yl)pyridin-3-yl)pyrazolo[1,5-a]pyrimidine-3-carboxamide]
16 | 10 to 1000 | CN1CCN(c2c(F)cncc2NC(=O)c2c(N)nn3cc(Cl)cnc23)CC1 [I-N-14, 2-amino-6-chloro-N-(5-fluoro-4-(4-methylpiperazin-1-yl)pyridin-3-yl)pyrazolo[1,5-a]pyrimidine-3-carboxamide]
17 | 10 to 1000 | CN1CCN(c2c(F)cncc2NC(=O)c2c(N)nn3cc(F)cnc23)CC1 [I-N-15, 2-amino-6-fluoro-N-(5-fluoro-4-(4-methylpiperazin-1-yl)pyridin-3-yl)pyrazolo[1,5-a]pyrimidine-3-carboxamide]
18 | 10 to 1000 | Cc1cncc(NC(=O)c2c(N)nn3cc(F)cnc23)c1N1CCN(C2COC2)CC1 [I-N-16, 2-amino-6-fluoro-N-(5-methyl-4-(4-(oxetan-3-yl)piperazin-1-yl)pyridin-3-yl)pyrazolo[1,5-a]pyrimidine-3-carboxamide]
19 | 10 to 1000 | CCN1CCN(c2ccncc2NC(=O)c2c(N)nn3cc(F)cnc23)CC1 [I-N-17, 2-amino-N-(4-(4-ethylpiperazin-1-yl)pyridin-3-yl)-6-fluoropyrazolo[1,5-a]pyrimidine-3-carboxamide]
20 | 10 to 1000 | Nc1nn2cc(F)cnc2c1C(=O)Nc1cnccc1N1CCN(CC(F)(F)F)CC1 [I-N-20, 2-amino-6-fluoro-N-(4-(4-(2,2,2-trifluoroethyl)piperazin-1-yl)pyridin-3-yl)pyrazolo[1,5-a]pyrimidine-3-carboxamide]
21 | 10 to 1000 | Nc1nn2cc(F)cnc2c1C(=O)Nc1cnccc1N1CCN2CCC[C@H]2C1 [I-N-21, (S)-2-amino-6-fluoro-N-(4-(hexahydropyrrolo[1,2-a]pyrazin-2(1H)-yl)pyridin-3-yl)pyrazolo[1,5-a]pyrimidine-3-carboxamide]
22 | 10 to 1000 | COCCN1CCN(c2ccncc2NC(=O)c2c(N)nn3cc(F)cnc23)CC1 [I-N-22, 2-amino-6-fluoro-N-(4-(4-(2-methoxyethyl)piperazin-1-yl)pyridin-3-yl)pyrazolo[1,5-a]pyrimidine-3-carboxamide]
23 | 10 to 1000 | C[C@@H]1CN(C2COC2)CCN1c1ccncc1NC(=O)c1c(N)nn2cc(F)cnc12 [I-N-23, (R)-2-amino-6-fluoro-N-(4-(2-methyl-4-(oxetan-3-yl)piperazin-1-yl)pyridin-3-yl)pyrazolo[1,5-a]pyrimidine-3-carboxamide]
24 | 10 to 1000 | C[C@H]1CN(C2COC2)CCN1c1ccncc1NC(=O)c1c(N)nn2cc(F)cnc12 [I-N-24, (S)-2-amino-6-fluoro-N-(4-(2-methyl-4-(oxetan-3-yl)piperazin-1-yl)pyridin-3-yl)pyrazolo[1,5-a]pyrimidine-3-carboxamide]
25 | 10 to 1000 | CC1(N2CCN(c3ccncc3NC(=O)c3c(N)nn4cc(Cl)cnc34)CC2)COC1 [I-N-25, 2-amino-6-chloro-N-(4-(4-(3-methyloxetan-3-yl)piperazin-1-yl)pyridin-3-yl)pyrazolo[1,5-a]pyrimidine-3-carboxamide]
26 | 10 to 1000 | Nc1nn2cc(F)cnc2c1C(=O)Nc1cnccc1-n1cccn1 [I-N-26, N-(4-(1H-pyrazol-1-yl)pyridin-3-yl)-2-amino-6-fluoropyrazolo[1,5-a]pyrimidine-3-carboxamide]
27 | 10 to 1000 | Nc1nn2cc(F)cnc2c1C(=O)Nc1cnccc1-n1cnc(C(F)(F)F)c1 [I-N-27, 2-amino-6-fluoro-N-(4-(4-(trifluoromethyl)-1H-imidazol-1-yl)pyridin-3-yl)pyrazolo[1,5-a]pyrimidine-3-carboxamide]
28 | 10 to 1000 | Cc1nccn1-c1ccncc1NC(=O)c1c(N)nn2cc(F)cnc12 [I-N-28, 2-amino-6-fluoro-N-(4-(2-methyl-1H-imidazol-1-yl)pyridin-3-yl)pyrazolo[1,5-a]pyrimidine-3-carboxamide]
29 | 10 to 1000 | Nc1nn2cc(Cl)cnc2c1C(=O)Nc1cnccc1-n1ccnc1 [I-N-29, N-(4-(1H-imidazol-1-yl)pyridin-3-yl)-2-amino-6-chloropyrazolo[1,5-a]pyrimidine-3-carboxamide]
30 | 10 to 1000 | Cc1nc(C(F)(F)F)cn1-c1ccncc1NC(=O)c1c(N)nn2cc(F)cnc12 [I-N-30, 2-amino-6-fluoro-N-(4-(2-methyl-4-(trifluoromethyl)-1H-imidazol-1-yl)pyridin-3-yl)pyrazolo[1,5-a]pyrimidine-3-carboxamide]
31 | 1000 to 5000 | Nc1nn2cc(F)cnc2c1C(=O)Nc1cnccc1N1CCN(C2COC2)C2CC21 (centres unmarked) [I-N-31, 2-amino-6-fluoro-N-(4-(5-(oxetan-3-yl)-2,5-diazabicyclo[4.1.0]heptan-2-yl)pyridin-3-yl)pyrazolo[1,5-a]pyrimidine-3-carboxamide]
32 | 10 to 1000 | Nc1nn2cc(F)cnc2c1C(=O)Nc1cncc(C2CC2)c1N1CCN(C2COC2)CC1 [I-N-32, 2-amino-N-(5-cyclopropyl-4-(4-(oxetan-3-yl)piperazin-1-yl)pyridin-3-yl)-6-fluoropyrazolo[1,5-a]pyrimidine-3-carboxamide]
33 | 10 to 1000 | Nc1nn2cc(F)cnc2c1C(=O)Nc1cnccc1N1CCN(C2CC2)CC1 [I-N-33, 2-amino-N-(4-(4-cyclopropylpiperazin-1-yl)pyridin-3-yl)-6-fluoropyrazolo[1,5-a]pyrimidine-3-carboxamide]
34 | 10 to 1000 | Nc1nn2cc(F)cnc2c1C(=O)Nc1cncc(Cl)c1N1CCN2CCN(C3COC3)CC2C1 (centres unmarked) [I-N-38, 2-amino-N-(5-chloro-4-(8-(oxetan-3-yl)hexahydro-1H-pyrazino[1,2-a]pyrazin-2(6H)-yl)pyridin-3-yl)-6-fluoropyrazolo[1,5-a]pyrimidine-3-carboxamide]

Row | SMILES | Ki [nM]
35 | Nc1nn2cc(F)cnc2c1C(=O)Nc1cnccc1N1CCN2CCC1CC2 [I-N-18, N-(4-(1,4-diazabicyclo[3.2.2]nonan-4-yl)pyridin-3-yl)-2-amino-6-fluoropyrazolo[1,5-a]pyrimidine-3-carboxamide] | 10 to 1000
